# Assay results as given in publication PMC9090415, “Discovery of small molecule inhibitors of Plasmodium falciparum apicoplast DNA polymerase” (Journal of Enzyme Inhibition and Medicinal Chemistry, 2022).
# Biological target: P. falciparum apicoplast DNA polymerase (Pf-apPOL) (Plasmodium falciparum, UniProt Q8ILY1)
# Experiment: Fluorescence-based high-throughput DNA polymerase assay (molecular beacon), primary screen and dose-response
# Assay type: biochemical
# Conditions: for DNA Pol: unit not given, 90 min, 10 µM; for % inhibition Apo pol 10' 2.5 / % inhibition Apo pol 10' 5 / % inhibition Apo pol 10' 10 / % inhibition Apo pol 10' 20 / % inhibition Apo pol 10' 40 / % inhibition Apo pol 10' 80: read at 10'; for % inhibition Apo pol 10' 10 / % inhibition Apol 90' 10 / % inhibition apPOL 180' 10 / % inhibition Apo pol 5' 10 / % inhibition Apol 40' 10 / % inhibition ApPOL 90' 10: concentration 10; for % inhibition Apol 90' 2.5 / % inhibition Apol 90' 5 / % inhibition Apol 90' 10 / % inhibition Apol 90' 20 / % inhibition Apol 90' 40 / % inhibition Apol 90' 80 / % inhibition ApPOL 90' 2.5 / % inhibition ApPOL 90' 5 / % inhibition ApPOL 90' 10 / % inhibition ApPOL 90' 20 / % inhibition ApPOL 90' 40 / % inhibition ApPOL 90' 80: read at 90'; for % inhibition apPOL 180' 2.5 / % inhibition apPOL 180' 5 / % inhibition apPOL 180' 10 / % inhibition apPOL 180' 20 / % inhibition apPOL 180' 40 / % inhibition apPOL 180' 80: read at 180'; for % inhibition Apo pol 5' 2.5 / % inhibition Apo pol 5' 5 / % inhibition Apo pol 5' 10 / % inhibition Apo pol 5' 20 / % inhibition Apo pol 5' 40 / % inhibition Apo pol 5' 80: read at 5'; for % inhibition Apol 40' 2.5 / % inhibition Apol 40' 5 / % inhibition Apol 40' 10 / % inhibition Apol 40' 20 / % inhibition Apol 40' 40 / % inhibition Apol 40' 80: read at 40'
# In short: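 Single-point screening used 10 µM compound with 20 nM polymerase, 20 nM hairpin substrate and 6 µM dNTPs for 90 min at 25 °C. Confirmatory titrations (2.5–80 µM) followed fluorescence at three times, and IC50 was derived from a fit including a cooperativity term n.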
# [1] = 186 hits, DNA Pol (screen value)
# P. falciparum apicoplast DNA polymerase (Pf-apPOL), sequence (Q8ILY1 entry or part of it): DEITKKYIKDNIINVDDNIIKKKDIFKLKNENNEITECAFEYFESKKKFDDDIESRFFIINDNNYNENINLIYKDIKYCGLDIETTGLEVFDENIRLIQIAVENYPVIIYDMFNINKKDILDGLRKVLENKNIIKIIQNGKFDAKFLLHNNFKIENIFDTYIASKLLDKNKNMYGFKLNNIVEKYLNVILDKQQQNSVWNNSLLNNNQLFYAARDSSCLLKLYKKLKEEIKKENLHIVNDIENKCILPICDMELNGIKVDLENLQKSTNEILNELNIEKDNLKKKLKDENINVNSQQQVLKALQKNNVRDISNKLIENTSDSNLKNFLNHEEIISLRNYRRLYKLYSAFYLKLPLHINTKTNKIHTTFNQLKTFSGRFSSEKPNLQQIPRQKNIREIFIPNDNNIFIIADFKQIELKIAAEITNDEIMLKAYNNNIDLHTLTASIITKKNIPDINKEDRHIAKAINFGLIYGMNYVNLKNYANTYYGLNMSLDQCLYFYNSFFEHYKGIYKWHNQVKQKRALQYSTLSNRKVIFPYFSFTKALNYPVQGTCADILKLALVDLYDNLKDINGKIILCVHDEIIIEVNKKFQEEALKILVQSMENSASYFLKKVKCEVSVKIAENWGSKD
compound,measurement,setting,value
"Cc1ccsc1Cn1c(C)ccc1C [Molecule 70, Cc1ccsc1Cn1c(C)ccc1C]",DNA Pol,[1],77
same,DNA Pol,'DNA Pol' (screen value),77
same,% inhibition Apo pol 10' 2.5,"DRC-1, concentration 2.5",0.1737%
same,% inhibition Apo pol 10' 5,"DRC-1, concentration 5",5.431%
same,% inhibition Apo pol 10' 10,DRC-1,19.8551%
same,% inhibition Apo pol 10' 20,"DRC-1, concentration 20",37.488%
same,% inhibition Apo pol 10' 40,"DRC-1, concentration 40",56.0716%
same,% inhibition Apo pol 10' 80,"DRC-1, concentration 80",76.6416%
same,% inhibition Apol 90' 2.5,"DRC-1, concentration 2.5",-5.458%
same,% inhibition Apol 90' 5,"DRC-1, concentration 5",-2.713%
same,% inhibition Apol 90' 10,DRC-1,8.027%
same,% inhibition Apol 90' 20,"DRC-1, concentration 20",21.1278%
same,% inhibition Apol 90' 40,"DRC-1, concentration 40",39.127%
same,% inhibition Apol 90' 80,"DRC-1, concentration 80",69.1434%
same,% inhibition apPOL 180' 2.5,"DRC-1, concentration 2.5",-10.1468%
same,% inhibition apPOL 180' 5,"DRC-1, concentration 5",-7.921%
same,% inhibition apPOL 180' 10,DRC-1,-1.934%
same,% inhibition apPOL 180' 20,"DRC-1, concentration 20",6.387%
same,% inhibition apPOL 180' 40,"DRC-1, concentration 40",21.8537%
same,% inhibition apPOL 180' 80,"DRC-1, concentration 80",54.6421%
same,% inhibition Apol 40',"DRC-2, concentration 80",62%
same,% inhibition apPOL 180',"DRC-2, concentration 2.5",-6%
same,% inhibition apPOL 180',"DRC-2, concentration 5",-6%
same,% inhibition apPOL 180',"DRC-2, concentration 80",62%
same,% inhibition Apo pol 5' 2.5,"DRC-2, concentration 2.5",-3.3%
same,% inhibition Apo pol 5' 5,"DRC-2, concentration 5",5.66%
same,% inhibition Apo pol 5' 10,DRC-2,20%
same,% inhibition Apo pol 5' 20,"DRC-2, concentration 20",32%
same,% inhibition Apo pol 5' 40,"DRC-2, concentration 40",48%
same,% inhibition Apo pol 5' 80,"DRC-2, concentration 80",47%
same,% inhibition Apol 40' 2.5,"DRC-2, concentration 2.5",-1.81%
same,% inhibition Apol 40' 5,"DRC-2, concentration 5",4%
same,% inhibition Apol 40' 10,DRC-2,18%
same,% inhibition Apol 40' 20,"DRC-2, concentration 20",33%
same,% inhibition Apol 40' 40,"DRC-2, concentration 40",56%
same,% inhibition Apol 40' 80,"DRC-2, concentration 80",62%
same,% inhibition ApPOL 90' 2.5,"DRC-2, concentration 2.5",-3%
same,% inhibition ApPOL 90' 5,"DRC-2, concentration 5",-0.174%
same,% inhibition ApPOL 90' 10,DRC-2,14%
same,% inhibition ApPOL 90' 20,"DRC-2, concentration 20",28%
same,% inhibition ApPOL 90' 40,"DRC-2, concentration 40",54%
same,% inhibition ApPOL 90' 80,"DRC-2, concentration 80",64%
same,% inhibition apPOL 180' 2.5,"DRC-2, concentration 2.5",-6%
same,% inhibition apPOL 180' 5,"DRC-2, concentration 5",-6%
same,% inhibition apPOL 180' 10,DRC-2,5.64%
same,% inhibition apPOL 180' 20,"DRC-2, concentration 20",16%
same,% inhibition apPOL 180' 40,"DRC-2, concentration 40",45%
same,% inhibition apPOL 180' 80,"DRC-2, concentration 80",62%
"CC(=O)OCC1=C(C(=O)[O-])N2C(=O)[C@@H](NC(=O)Cc3cccs3)[C@H]2SC1.[Na+] [Molecule 73, CC(=O)OCC1=C(C(=O)[O-])N2[C@H](SC1)[C@@H](C2=O)NC(=O)Cc1cccs1.[Na+]]",DNA Pol,[1],62
same,DNA Pol,'DNA Pol' (screen value),62
same,% inhibition Apo pol 10' 2.5,"DRC-1, concentration 2.5",15.9246%
same,% inhibition Apo pol 10' 5,"DRC-1, concentration 5",24.2196%
same,% inhibition Apo pol 10' 10,DRC-1,38.6298%
same,% inhibition Apo pol 10' 20,"DRC-1, concentration 20",52.9189%
same,% inhibition Apo pol 10' 40,"DRC-1, concentration 40",72.9017%
same,% inhibition Apo pol 10' 80,"DRC-1, concentration 80",83.4409%
same,% inhibition Apol 90' 2.5,"DRC-1, concentration 2.5",-0.64%
same,% inhibition Apol 90' 5,"DRC-1, concentration 5",-0.282%
same,% inhibition Apol 90' 10,DRC-1,6.863%
same,% inhibition Apol 90' 20,"DRC-1, concentration 20",14.2955%
same,% inhibition Apol 90' 40,"DRC-1, concentration 40",36.8577%
same,% inhibition Apol 90' 80,"DRC-1, concentration 80",67.9349%
same,% inhibition apPOL 180' 2.5,"DRC-1, concentration 2.5",-8.644%
same,% inhibition apPOL 180' 5,"DRC-1, concentration 5",-9.547%
same,% inhibition apPOL 180' 10,DRC-1,-4.869%
same,% inhibition apPOL 180' 20,"DRC-1, concentration 20",-0.1262%
same,% inhibition apPOL 180' 40,"DRC-1, concentration 40",18.2499%
same,% inhibition apPOL 180' 80,"DRC-1, concentration 80",56.6871%
same,% inhibition Apol 40',"DRC-2, concentration 2.5",1.25%
same,% inhibition Apol 40',"DRC-2, concentration 20",29%
same,% inhibition ApPOL 90',"DRC-2, 90', concentration 2.5",1.25%
same,% inhibition apPOL 180',"DRC-2, concentration 40",29%
same,% inhibition Apo pol 5' 2.5,"DRC-2, concentration 2.5",3%
same,% inhibition Apo pol 5' 5,"DRC-2, concentration 5",6.34%
same,% inhibition Apo pol 5' 10,DRC-2,22%
same,% inhibition Apo pol 5' 20,"DRC-2, concentration 20",36%
same,% inhibition Apo pol 5' 40,"DRC-2, concentration 40",43%
same,% inhibition Apo pol 5' 80,"DRC-2, concentration 80",50%
same,% inhibition Apol 40' 2.5,"DRC-2, concentration 2.5",1.25%
same,% inhibition Apol 40' 5,"DRC-2, concentration 5",2%
same,% inhibition Apol 40' 10,DRC-2,13%
same,% inhibition Apol 40' 20,"DRC-2, concentration 20",29%
same,% inhibition Apol 40' 40,"DRC-2, concentration 40",45%
same,% inhibition Apol 40' 80,"DRC-2, concentration 80",62%
same,% inhibition ApPOL 90' 2.5,"DRC-2, concentration 2.5",1.25%
same,% inhibition ApPOL 90' 5,"DRC-2, concentration 5",-1.85%
same,% inhibition ApPOL 90' 10,DRC-2,5%
same,% inhibition ApPOL 90' 20,"DRC-2, concentration 20",20%
same,% inhibition ApPOL 90' 40,"DRC-2, concentration 40",39%
same,% inhibition ApPOL 90' 80,"DRC-2, concentration 80",63%
same,% inhibition apPOL 180' 2.5,"DRC-2, concentration 2.5",-0.311%
same,% inhibition apPOL 180' 5,"DRC-2, concentration 5",-7%
same,% inhibition apPOL 180' 10,DRC-2,-2.83%
same,% inhibition apPOL 180' 20,"DRC-2, concentration 20",10%
same,% inhibition apPOL 180' 40,"DRC-2, concentration 40",29%
same,% inhibition apPOL 180' 80,"DRC-2, concentration 80",60%
